Measured values published in patent publication US20240140957A1, “BRIDGED COMPOUNDS AS KRAS G12D INHIBITOR AND DEGRADER AND THE USE THEREOF” (BeiGene Switzerland GmbH, priority 2021, published 2024).

Columns and labels:
KRAS G12D:SOS1 = KRAS G12D:SOS1 (Homo sapiens, UniProt P01116, G12D); experiment: KRAS G12D:SOS1 GDP TR-FRET assay; assay type: binding; conditions: GST-KRAS G12D 37.5 nM, GDP 10 μM, His-SOS1 18 nM
Description: (§1) KRAS:SOS1 GDP TR-FRET Assay
(§2) This assay was used to identify compounds which competitively interact with the binding of KRAS protein to SOS1 in the presence of GDP. […] All protein and reaction solutions were prepared in assay buffer containing DPBS pH7.5, 0.1% BSA, and 0.05% Tween 20. Purified GST-tagged WT KRAS or KRAS G12D protein (37.5 nM final assay concentration) and GDP (Sigma, 10 μM final assay concentration) mixture, a serially diluted compound (top final concentration is 50 μM or 10 uM, 3-fold serially diluted, 10 points) and His-tagged SOS1 protein (18 nM final assay concentration) were added into the assay plates (384 well microplate, black, Corning) sequentially. Plates are incubated at 24° C. for 1 hr. Following the incubation, Mab Anti-GST-Tb cryptate (Cisbio) and […] (Cisbio) were added and further incubated at 24° C. for another 1 hr. The TR-FRET signals (ex337 nm, em665 nm/620 nm) were read on BMG PHERAstar FSX instrument. The inhibition percentage of KRAS protein binding with SOS1 in presence of increasing concentrations of compounds was calculated based on the ratio of fluorescence at 665 nm to that at 620 nm. The IC50 value of each compound was calculated from fitting the data to the four-parameter logistic model by Dotmatics.

WT KRAS:SOS1 = WT KRAS:SOS1 (Homo sapiens, UniProt P01116); experiment: KRAS WT:SOS1 GDP TR-FRET assay; assay type: binding; conditions: GST-WT KRAS 37.5 nM, GDP 10 μM, His-SOS1 18 nM
Description: as §1, §2

[1] = test system: pERK1/2 (THR202/TYR204) in AsPC-1 cells; experiment: pERK Assay (HTRF) in AsPC-1 cells; assay type: cell-based; conditions: Homo sapiens, ASPC1, 2 h compound treatment
Description: AsPC-1 cell line was used in this study. […] 30000 cells per well were seeded into a 96-well plate and incubated overnight. […] After 2 h compound treatment, cells were lysed, and the pERK1/2 (THR202/TYR204) level in the cell lysates was detected by HTRF kit (Cisbio). In brief, a total of 16 μL of cell lysate from each well of a 96-well plate was transferred to a 384-well white assay plate. Lysate from each well was incubated with 2 μL of Eu3+-cryptate (donor) labeled anti-phospho-ERK1/2 and 2 μL of D2 (acceptor) labeled anti-phospho-ERK1/2 antibodies (Cisbio) overnight in dark at room temperature. When donor and acceptor are in close proximity, excitation of the donor with laser triggers a Fluorescence Resonance Energy Transfer (FRET) towards the acceptor, which in turn fluoresces at 655 nm wavelength. FRET signals were measured using a PHERAstar FSX reader (BMG Labtech).

WT KRAS:SOS1, sequence (P01116 1-188 isoform P01116-2): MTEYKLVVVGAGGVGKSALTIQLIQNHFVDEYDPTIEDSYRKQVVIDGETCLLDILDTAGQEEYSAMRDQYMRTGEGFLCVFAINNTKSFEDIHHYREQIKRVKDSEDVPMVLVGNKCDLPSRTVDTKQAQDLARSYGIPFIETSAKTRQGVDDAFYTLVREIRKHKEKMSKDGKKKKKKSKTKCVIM
KRAS G12D:SOS1, sequence (P01116 1-188 isoform P01116-2 G12D): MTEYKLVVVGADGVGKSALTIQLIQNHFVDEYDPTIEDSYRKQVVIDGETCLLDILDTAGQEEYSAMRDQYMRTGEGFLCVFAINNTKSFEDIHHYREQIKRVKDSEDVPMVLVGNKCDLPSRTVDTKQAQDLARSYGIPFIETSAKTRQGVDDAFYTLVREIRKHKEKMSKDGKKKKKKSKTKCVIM

Compound	IC50 (KRAS G12D:SOS1) [nM]	IC50 (WT KRAS:SOS1) [nM]	IC50 [1] [nM]
CN(C)CCCOc1nc(N2CC3CCC2CN3)c2cc(Cl)c(-c3ccc(F)c4sc(N)nc34)c(F)c2n1 (stereo not drawn) [Example E4, 4-(4-(2,5-diazabicyclo[2.2.2]octan-2-yl)-6-chloro-2-(3-(dimethylamino)propoxy)-8-fluoroquinazolin-7-yl)-7-fluorobenzo[d]thiazol-2-amine]	39	1100	> 10000
CC(CN1CCCCC1)Oc1nc(N2CC3CCC(C2)N3)c2cc(Cl)c(-c3ccc(F)c4sc(N)nc34)c(F)c2n1 (stereo not drawn) [Example E5, 4-(4-(3,8-diazabicyclo [3.2.1]octan-3-yl)-6-chloro-8-fluoro-2-((1-(piperidin-1-yl)propan-2-yl)_oxy)quinazolin-7-yl)-7-fluorobenzo[d]thiazol-2-amine]	20	402	2870
CC(CN1CCCCC1)Oc1nc(N2CC3CC(C2)N3)c2cc(Cl)c(-c3ccc(F)c4sc(N)nc34)c(F)c2n1 (stereo not drawn) [Example E6, 4-(4-(3,6-diazabicyclo[3.1.1]heptan-3-yl)-6-chloro-8-fluoro-2-((1-(piperidin-1-yl)propan-2-yl)oxy)quinazolin-7-yl)-7-fluorobenzo[d]thiazol-2-amine]	18	1060	7080
Nc1nc2c(-c3c(Cl)cc4c(N5CC6CCC(C5)N6)nc(OCC56CCCN5CCC6)nc4c3F)ccc(F)c2s1 [Example E7, 4-(4-(3,8-diazabicyclo[3.2.1]octan-3-yl)-6-chloro-8-fluoro-2-((tetrahydro-1H-pyrrolizin-7a(5H)-yl)methoxy)quinazolin-7-yl)-7-fluorobenzo[d]thiazol-2-amine]	4.7	11	2640
CC(CN1CCCCC1)Oc1nc(N2C3CCC2CNC3)c2cc(Cl)c(-c3ccc(F)c4sc(N)nc34)c(F)c2n1 (stereo not drawn) [Example E8, 4-(4-(3,8-diazabicyclo[3.2.1]octan-8-yl)-6-chloro-8-fluoro-2-((1-(piperidin-1-yl)propan-2-yl)oxy)quinazolin-7-yl)-7-fluorobenzo[d]thiazol-2-amine]	6.7	50	1150
CC(CN1CCCCC1)Oc1nc(N2C3CCC2C(N)C3)c2cc(Cl)c(-c3ccc(F)c4sc(N)nc34)c(F)c2n1 (stereo not drawn) [Example E9, 4-(4-(2-amino-7-azabicyclo[2.2.1]heptan-7-yl)-6-chloro-8-fluoro-2-((1-(piperidin-1-yl)propan-2-yl)oxy)quinazolin-7-yl)-7-fluorobenzo[d]thiazol-2-amine]	26	381	7690
CC(CN1C2CCC1CNC2)Oc1nc(N2CC3CCC(C2)N3)c2cc(Cl)c(-c3ccc(F)c4sc(N)nc34)c(F)c2n1 (stereo not drawn) [Example E10, 4-(2-((1-(3,8-diazabicyclo[3.2.1]octan-8-yl)propan-2-yl)oxy)-4-(3,8-diazabicyclo[3.2.1]octan-3-yl)-6-chloro-8-fluoroquinazolin-7-yl)-7-fluorobenzo[d]thiazol-2-amine]	5.7	387	> 10000
C[C@@H](CN1CCCCC1)Oc1nc(N2CC3CCC(C2)N3)c2cc(Cl)c(-c3ccc(F)c4sc(N)nc34)c(F)c2n1 [Example E11, 4-(4-(3,8-diazabicyclo[3.2.1]octan-3-yl)-6-chloro-8-fluoro-2-(((S)-1-(piperidin-1-yl)propan-2-yl)oxy)quinazolin-7-yl)-7-fluorobenzo[d]thiazol-2-amine]	1.9	30	859
C[C@@H](CN1CCCCC1)Oc1nc(N2CC3CC(C2)N3)c2cc(Cl)c(-c3ccc(F)c4sc(N)nc34)c(F)c2n1 [Example E12]	3.5	124	2020
CC(CN1CCNCC1)Oc1nc(N2CC3CCC(C2)N3)c2cc(Cl)c(-c3ccc(F)c4sc(N)nc34)c(F)c2n1 (stereo not drawn) [Example E13, 4-(4-(3,8-diazabicyclo[3.2.1]octan-3-yl)-6-chloro-8-fluoro-2-((1-(piperazin-1-yl)propan-2-yl)oxy)quinazolin-7-yl)-7-fluorobenzo[d]thiazol-2-amine]	8.3	537	> 10000
CO[C@@H]1C[C@@H](COc2nc(N3CC4CCC(C3)N4)c3cc(Cl)c(-c4ccc(F)c5sc(N)nc45)c(F)c3n2)N(C)C1 [Example E14, 4-(4-(3,8-diazabicyclo[3.2.1]octan-3-yl)-6-chloro-8-fluoro-2-(((2S,4R)-4-methoxy-1-methylpyrrolidin-2-yl)methoxy)quinazolin-7-yl)-7-fluorobenzo[d]thiazol-2-amine]	5.3	68	1160
CN1C[C@H](F)C[C@H]1COc1nc(N2CC3CCC(C2)N3)c2cc(Cl)c(-c3ccc(F)c4sc(N)nc34)c(F)c2n1 [Example E15, 4-(4-(3,8-diazabicyclo[3.2.1]octan-3-yl)-6-chloro-8-fluoro-2-(((2S,4R)-4-fluoro-1-methylpyrrolidin-2-yl)methoxy)quinazolin-7-yl)-7-fluorobenzo[d]thiazol-2-amine]	4.4	83	574
CN1CCC[C@H]1COc1nc(N2CC3CCC(C2)N3)c2cc(Cl)c(-c3ccc(F)c4sc(N)nc34)c(F)c2n1 [Example E16, 4-(4-(3,8-diazabicyclo[3.2.1]octan-3-yl)-6-chloro-8-fluoro-2-(((S)-1-methylpyrrolidin-2-yl)methoxy)quinazolin-7-yl)-7-fluorobenzo[d]thiazol-2-amine]	2.8	27	1520
C[C@@H](CN1CCC(F)(F)CC1)Oc1nc(N2CC3CCC(C2)N3)c2cc(Cl)c(-c3ccc(F)c4sc(N)nc34)c(F)c2n1 [Example E17, 4-(4-(3,8-diazabicyclo[3.2.1]octan-3-yl)-6-chloro-2-(((S)-1-(4,4-difluoropiperidin-1-yl)propan-2-yl)oxy)-8-fluoroquinazolin-7-yl)-7-fluorobenzo[d]thiazol-2-amine]	4.2	785	2880
C[C@@H](CN1CCCCC1)Oc1nc(N2C3CCC2CNC3)c2cc(Cl)c(-c3ccc(F)c4sc(N)nc34)c(F)c2n1 [Example E18, 4-(4-(3,8-diazabicyclo[3.2.1]octan-8-yl)-6-chloro-8-fluoro-2-(((S)-1-(piperidin-1-yl)propan-2-yl)oxy)quinazolin-7-yl)-7-fluorobenzo[d]thiazol-2-amine]	2.5	35	528
C[C@@H](CN1CCC(F)(F)CC1)Oc1nc(N2C3CCC2CNC3)c2cc(Cl)c(-c3ccc(F)c4sc(N)nc34)c(F)c2n1 [Example E19, 4-(4-(3,8-diazabicyclo[3.2.1]octan-8-yl)-6-chloro-2-(((S)-1-(4,4-difluoropiperidin-1-yl)propan-2-yl)oxy)-8-fluoroquinazolin-7-yl)-7-fluorobenzo[d]thiazol-2-amine]	10	566	3410
C[C@@H](CN1CCC(F)(F)C1)Oc1nc(N2CC3CCC(C2)N3)c2cc(Cl)c(-c3ccc(F)c4sc(N)nc34)c(F)c2n1 [Example E20, 4-(4-(3,8-diazabicyclo[3.2.1]octan-3-yl)-6-chloro-2-(((S)-1-(3,3-difluoropyrrolidin-1-yl)propan-2-yl)oxy)-8-fluoroquinazolin-7-yl)-7-fluorobenzo[d]thiazol-2-amine]	25	> 10000	7260
CC(CN1CCCCC1)Oc1nc(N2CC3COCC(C2)N3)c2cc(Cl)c(-c3ccc(F)c4sc(N)nc34)c(F)c2n1 (stereo not drawn) [Example E21, 4-(4-(3-oxa-7,9-diazabicyclo[3.3.1]nonan-7-yl)-6-chloro-8-fluoro-2-((1-(piperidin-1-yl)propan-2-yl)oxy)quinazolin-7-yl)-7-fluorobenzo[d]thiazol-2-amine]	44	338	> 10000
C[C@@H](CN1CCS(=O)(=O)CC1)Oc1nc(N2CC3CCC(C2)N3)c2cc(Cl)c(-c3ccc(F)c4sc(N)nc34)c(F)c2n1 [Example E22, 4-((2S)-2-((7-(2-amino-7-fluorobenzo[d]thiazol-4-yl)-4-(3,8-diazabicyclo[3.2.1]octan-3-yl)-6-chloro-8-fluoroquinazolin-2-yl)oxy)propyl)thiomorpholine 1,1-dioxide]	27	> 3330	7700
